Reference: patent US9688702B2, “Alpha-amino boronic acid derivatives, selective immunoproteasome inhibitors” (Ares Trading S.A, priority 2011, dated 2017)
Where a name gives a salt, the structure may show the parent alone.

Legend:
[1] = target: LMP7 (purified human immuno proteasome) (Homo sapiens, UniProt P28062); test: Determination of LMP7 activity (fluorescence intensity assay, Suc-LLVY-AMC); assay type: biochemical; details: for IC50: 40 μM Suc-LLVY-AMC, 37° C.
Description: Measurement of LMP7 inhibition is performed in 384 well format based on fluorescence intensity assay.
(§1) Purified human immuno proteasome (0.5 nM) and serial diluted compounds in DMSO (range of concentrations from 10 μM to 38 pM) or controls (0.5% DMSO) are incubated for 30 minutes at 37° C. in assay buffer containing 50 mM Tris pH 7.4 and 0.03% SDS. The reaction is initiated by the addition of the fluorogenic peptide substrate, Suc-LLVY-AMC (Bachem I-1395), at a concentration of 40 μM. After 90 minutes of incubation at 37° C., fluorescence intensity is measured at λex=350 nm and λem=450 nm with a fluorescence reader (BMG Pherastar reader or equivalent).
as §1, with “proteasome (0.25” for “proteasome (0.5”

[2] = target: Beta5 (purified human constitutive proteasome) (Homo sapiens, UniProt P28074); test: Determination of Beta5 activity (fluorescence intensity assay, Suc-LLVY-AMC); assay type: biochemical; details: purified human constitutive proteasome 1.0 nM, 40 μM Suc-LLVY-AMC, 37° C.
Description: Measurement of Beta5 inhibition is performed in 384 well format based on fluorescence intensity assay.
as §1, with “human constitutive” for “human immuno”, “proteasome (1.0” for “proteasome (0.5”, “(Bachem 1-1395),” for “(Bachem I-1395),”

[3] = purified human immuno proteasome 0.5 nM
[4] = purified human immuno proteasome 0.25 nM (examples 79, 80, 83, 84, 85, 87, 88, 89, 90, 91, 93, 94, 96, 97, 101 and 110)

CCc1cccc(C[C@H](NC(=O)[C@H](CC(=O)c2ccccc2)c2ccc(Cl)cc2)B(O)O)c1 (single isomer, unassigned) [Example 15]
Selectivity LMP7 vs Beta5 [1]: +++ (+++: Selectivity > 30) | IC50 [1, 3]: 50 to 500 nM | IC50 [2]: > 5000 nM

O=C(CCc1ccncc1)N[C@@H](Cc1coc2ccccc12)B(O)O [Example 93, (R)-(2-(benzofuran-3-yl)-1-(3-(pyridin-4-yl)propanamido)ethyl)boronic acid hydrochloride]
Selectivity LMP7 vs Beta5 [1]: ++ (++: 10 < Selectivity < 30) | IC50 [1, 4]: < 50 nM | IC50 [2]: < 50 nM

COc1ccc(C(=O)C[C@H](Cc2ccccc2)C(=O)N[C@@H](Cc2ccsc2)B(O)O)cc1 (single isomer, unassigned) [Example 24]
Selectivity LMP7 vs Beta5 [1]: +++ (+++: Selectivity > 30) | IC50 [1, 3]: < 50 nM | IC50 [2]: 50 to 500 nM

O=C(CCn1ncc2ccccc21)N[C@@H](Cc1ccsc1)B(O)O [Example 32, [(1R)-1-{[3-(1H-indazol-1-yl)propanoyl]amino}-2-(3-thienyl)ethyl]boronic acid]
Selectivity LMP7 vs Beta5 [1]: + (+: Selectivity < 10) | IC50 [1, 3]: 50 to 500 nM | IC50 [2]: 50 to 500 nM

COc1ccc(C(=O)CCC(=O)N[C@@H](Cc2ccc(F)c(C(F)(F)F)c2)B(O)O)cc1 [Example 50, (R)-(2-(4-fluoro-3-(trifluoromethyl)phenyl)-1-(4-(4-methoxyphenyl)-4-oxobutanamido)ethyl)boronic acid]
Selectivity LMP7 vs Beta5 [1]: ++ (++: 10 < Selectivity < 30) | IC50 [1, 3]: 50 to 500 nM | IC50 [2]: > 5000 nM

O=C(Cc1cnc[nH]1)N[C@@H](Cc1coc2ccccc12)B(O)O [Example 83, (R)-(1-(2-(1H-imidazol-5-yl)acetamido)-2-(benzofuran-3-yl)ethyl) boronic acid hydrochloride]
Selectivity LMP7 vs Beta5 [1]: ++ (++: 10 < Selectivity < 30) | IC50 [1, 4]: < 50 nM | IC50 [2]: 50 to 500 nM

O=C(CCN1CCNCC1)N[C@@H](Cc1coc2ccccc12)B(O)O [Example 92, (R)-(2-(benzofuran-3-yl)-1-(3-(piperazin-1-yl)propanamido)ethyl) boronic acid hydrochloride]
Selectivity LMP7 vs Beta5 [1]: +++ (+++: Selectivity > 30) | IC50 [1, 3]: < 50 nM | IC50 [2]: 50 to 500 nM

Cn1ncc2cc(C[C@H](NC(=O)CCn3c(=O)sc4ccccc43)B(O)O)ccc21 [Example 102, (R)-(2-(1-methyl-1H-indazol-5-yl)-1-(3-(2-oxobenzo[d]thiazol-3(2H)-yl)propanamido)ethyl)boronic acid]
Selectivity LMP7 vs Beta5 [1]: ++ (++: 10 < Selectivity < 30) | IC50 [1, 3]: < 50 nM | IC50 [2]: < 50 nM

COc1cc(C[C@H](NC(=O)CCn2cnc3ccccc32)B(O)O)ccc1F [Example 69, (R)-(1-(3-(1H-benzo[d]imidazol-1-yl)propanamido)-2-(4-fluoro-3-methoxyphenyl)ethyl)boronic acid]
Selectivity LMP7 vs Beta5 [1]: + (+: Selectivity < 10) | IC50 [1, 3]: 50 to 500 nM | IC50 [2]: 500 to 5000 nM

COc1cc(F)cc(C[C@H](NC(=O)CCn2cnc3ccccc32)B(O)O)c1 [Example 57, (R)-(1-(3-(1H-benzo[d]imidazol-1-yl)propanamido)-2-(3-fluoro-5-methoxyphenyl)ethyl)boronic acid]
Selectivity LMP7 vs Beta5 [1]: ++ (++: 10 < Selectivity < 30) | IC50 [1, 3]: < 50 nM | IC50 [2]: 50 to 500 nM

O=C(CCc1ccccc1)N[C@@H](Cc1coc2ccccc12)B(O)O [Example 94, (R)-(2-(benzofuran-3-yl)-1-(3-phenylpropanamido)ethyl)boronic acid]
Selectivity LMP7 vs Beta5 [1]: +++ (+++: Selectivity > 30) | IC50 [1, 4]: < 50 nM | IC50 [2]: < 50 nM

O=C(CCc1cn(-c2ccccc2)nn1)N[C@@H](Cc1ccc2ccccc2c1)B(O)O [Example 98, (R)-(2-(naphthalen-2-yl)-1-(3-(1-phenyl-1H-1,2,3-triazol-4-yl)propanamido)ethyl)boronic acid]
Selectivity LMP7 vs Beta5 [1]: ++ (++: 10 < Selectivity < 30) | IC50 [1, 3]: < 50 nM | IC50 [2]: 50 to 500 nM

COc1cccc(CCC(=O)N[C@@H](Cc2coc3ccccc23)B(O)O)c1 [Example 84, (R)-(2-(benzofuran-3-yl)-1-(3-(3-methoxyphenyl)propanamido)ethyl) boronic acid]
Selectivity LMP7 vs Beta5 [1]: ++ (++: 10 < Selectivity < 30) | IC50 [1, 4]: < 50 nM | IC50 [2]: < 50 nM

Cn1ncc2cc(C[C@H](NC(=O)CCn3cc(-c4ccccc4)nn3)B(O)O)ccc21 [Example 103, (R)-(2-(1-methyl-1H-indazol-5-yl)-1-(3-(4-phenyl-1H-1,2,3-triazol-1-yl)propanamido)ethyl)boronic acid]
Selectivity LMP7 vs Beta5 [1]: ++ (++: 10 < Selectivity < 30) | IC50 [1, 3]: < 50 nM | IC50 [2]: < 50 nM

O=C(CCn1c(=O)sc2ccccc21)N[C@@H](Cc1c[nH]c2ccccc12)B(O)O [Example 101]
Selectivity LMP7 vs Beta5 [1]: +++ (+++: Selectivity > 30) | IC50 [1, 4]: < 50 nM | IC50 [2]: < 50 nM

O=C(CCc1noc(-c2ccccc2)n1)N[C@@H](Cc1ccsc1)B(O)O [Example 37, [(1R)-1-{[3-(5-phenyl-1,2,4-oxadiazol-3-yl)propanoyl]amino}-2-(3-thienyl)ethyl]boronic acid]
Selectivity LMP7 vs Beta5 [1]: ++ (++: 10 < Selectivity < 30) | IC50 [1, 3]: 50 to 500 nM | IC50 [2]: 500 to 5000 nM

CC(=O)N[C@@H](Cc1coc2ccccc12)B(O)O [Example 78, (R)-(1-acetamido-2-(benzofuran-3-yl)ethyl)boronic acid]
Selectivity LMP7 vs Beta5 [1]: +++ (+++: Selectivity > 30) | IC50 [1, 3]: < 50 nM | IC50 [2]: 500 to 5000 nM

O=C(N[C@@H](Cc1ccsc1)B(O)O)[C@H]1CCCC[C@@H]1C(=O)c1ccccc1 (racemic) [Example 2, [(1R)-1-({[(1RS,2RS)-2-benzoylcyclohexyl]carbonyl}amino)-2-(3-thienyl)ethyl]boronic acid]
IC50 [1, 3]: 500 to 5000 nM | IC50 [2]: > 5000 nM

CC(CC(=O)c1ccccc1)C(=O)N[C@@H](Cc1ccsc1)B(O)O (mixture of isomers) [Example 10, [(1R)-1-[(2-(RS)-methyl-4-oxo-4-phenylbutanoyl)amino]-2-(3-thienyl)ethyl]boronic acid]
IC50 [1, 3]: 500 to 5000 nM | IC50 [2]: > 5000 nM

CCOc1cccc(C[C@H](NC(=O)CCc2noc(-c3ccccc3)n2)B(O)O)c1 [Example 68, (R)-(2-(3-ethoxyphenyl)-1-(3-(5-phenyl-1,2,4-oxadiazol-3-yl)propanamido)ethyl)boronic acid]
Selectivity LMP7 vs Beta5 [1]: +++ (+++: Selectivity > 30) | IC50 [1, 3]: < 50 nM | IC50 [2]: 500 to 5000 nM

O=C(CCc1noc(-c2ccccc2)n1)N[C@@H](Cc1cccc(C(F)(F)F)c1)B(O)O [Example 39, {(1R)-1-{[3-(5-phenyl-1,2,4-oxadiazol-3-yl)propanoyl]amino}-2-[3-(trifluoromethyl)phenyl]ethyl}boronic acid]
Selectivity LMP7 vs Beta5 [1]: +++ (+++: Selectivity > 30) | IC50 [1, 3]: 50 to 500 nM | IC50 [2]: 500 to 5000 nM

O=C(CCC(=O)c1cccc(-c2ccccc2)n1)N[C@@H](Cc1ccsc1)B(O)O [Example 23, [(1R)-1-{[4-oxo-4-(6-phenylpyridin-2-yl)butanoyl]amino}-2-(3-thienyl)ethyl]boronic acid]
Selectivity LMP7 vs Beta5 [1]: ++ (++: 10 < Selectivity < 30) | IC50 [1, 3]: 50 to 500 nM | IC50 [2]: 500 to 5000 nM

CCOc1cccc(CC(NC(=O)CCn2cc(-c3ccccc3)nn2)B(O)O)c1 (centres unmarked) [Example 70, (2-(3-ethoxyphenyl)-1-(3-(4-phenyl-1H-1,2,3-triazol-1-yl)propanamido)ethyl)boronic acid]
Selectivity LMP7 vs Beta5 [1]: ++ (++: 10 < Selectivity < 30) | IC50 [1, 3]: < 50 nM | IC50 [2]: 50 to 500 nM

CCc1cccc(C[C@H](NC(=O)CCC(=O)c2ccc(OC)cc2OC)B(O)O)c1 [Example 11, [(1R)-1-{[4-(2,4-dimethoxyphenyl)-4-oxobutanoyl]amino}-2-(3-ethylphenyl)ethyl]boronic acid]
Selectivity LMP7 vs Beta5 [1]: +++ (+++: Selectivity > 30) | IC50 [1, 3]: 50 to 500 nM | IC50 [2]: > 5000 nM

O=C(CCn1cnc2ccccc21)N[C@@H](Cc1ccsc1)B(O)O [Example 33, [(1R)-1-{[3-(1H-benzimidazol-1-yl)propanoyl]amino}-2-(3-thienyl)ethyl]boronic acid]
Selectivity LMP7 vs Beta5 [1]: + (+: Selectivity < 10) | IC50 [1, 3]: 50 to 500 nM | IC50 [2]: 50 to 500 nM

CCc1cccc(C[C@H](NC(C)=O)B(O)O)c1 [Example 77, (R)-(1-acetamido-2-(3-ethylphenyl)ethyl)boronic acid]
IC50 [1, 3]: 500 to 5000 nM
